The term IC50 denotes the concentration needed to halve the response being measured. What is called EC50 is the midpoint of the concentration-response curve. What is called AUC is concentration integrated over time. High values mean high exposure, low ones low exposure. The term Vd denotes a proportionality between amount in the body and measured concentration, not a real space. Higher therefore signals wide distribution into tissue. The clearance is a measure of how efficiently the substance is removed, as volume per time. The Ki is the dissociation constant of the complex between target and ligand, obtained from inhibition or displacement. A lower Ki goes with tighter binding.

Like-named read-outs stand apart in the source and are kept apart here.

The target of one data set is Trypsin. The data set can be described thus: Enzyme inhibition assay, chromogenic substrate S-2765. It is filed as biochemical. To be noted: 10 min preincubation, 3 nM enzyme. The protocol:
Final reaction volumes were 100 μL.
For FXIIa, the buffer also contained 50 mM imidazole. […] The buffer for FIXa (50 nM final concentration) was 50 mM Tris, 100 mM NaCl, 5 mM CaCl2, and 30% ethylene glycol.

In data set [1] the target is T1, Factor Xa (Homo sapiens, UniProt P00742). The data set is described as above.
T1 sequence (P00742 235-488 limits assumed): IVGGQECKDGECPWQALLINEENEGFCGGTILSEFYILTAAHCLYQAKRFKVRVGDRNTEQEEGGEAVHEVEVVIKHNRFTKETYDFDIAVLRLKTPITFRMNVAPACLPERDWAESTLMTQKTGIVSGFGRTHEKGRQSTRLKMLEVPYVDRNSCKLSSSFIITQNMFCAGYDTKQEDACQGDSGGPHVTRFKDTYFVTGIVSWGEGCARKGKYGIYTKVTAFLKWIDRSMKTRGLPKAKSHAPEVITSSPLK
T1 sequence (P00742 41-179 partner limits assumed): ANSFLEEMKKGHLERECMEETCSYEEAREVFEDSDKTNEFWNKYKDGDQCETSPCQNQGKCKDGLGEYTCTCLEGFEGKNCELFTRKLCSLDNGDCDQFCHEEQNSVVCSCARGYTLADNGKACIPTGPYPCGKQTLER
For a further data set, the target named is Factor IXa (Homo sapiens, UniProt P00740). Nature of the data set: Enzyme inhibition assay, substrate Spectrozyme.
Chain of Factor IXa (P00740 227-461 limits assumed): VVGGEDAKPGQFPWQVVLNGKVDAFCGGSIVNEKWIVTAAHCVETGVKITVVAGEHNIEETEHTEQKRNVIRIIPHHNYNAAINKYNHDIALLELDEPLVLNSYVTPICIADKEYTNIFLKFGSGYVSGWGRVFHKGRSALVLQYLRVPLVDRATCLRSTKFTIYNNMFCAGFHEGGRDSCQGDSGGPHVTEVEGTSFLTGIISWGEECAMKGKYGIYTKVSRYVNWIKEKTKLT
Chain of Factor IXa (P00740 47-191 partner limits assumed): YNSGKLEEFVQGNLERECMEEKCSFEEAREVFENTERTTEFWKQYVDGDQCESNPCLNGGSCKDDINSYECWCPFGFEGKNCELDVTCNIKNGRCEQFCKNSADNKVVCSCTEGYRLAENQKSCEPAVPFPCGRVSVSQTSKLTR
Data set [2] concerns thrombin generation in human platelet-poor plasma. The data set can be described thus: Thrombin generation assay (TGA). In kind it is biochemical. To be noted: 70% human platelet-poor plasma, 37°C. The protocol: The assay was performed with human platelet-poor plasma (70% final concentration) in buffer containing 20 mM HEPES (pH 7.4), 150 mM NaCl, and compound in DMSO (4% final concentration). The assay also contained phospholipids (approx. 3 μM) and Dade Innovin (1/5000 final dilution of stock). The reaction was triggered by the addition of a solution containing substrate (Z-GGR-AMC, 0.5 mM final concentration) and CaCl2 (15 mM final concentration). The reaction was then monitored kinetically by fluorescence (excitation 380 nm, emission 460 nm) at 37°C for 90 min.

Data set [3] deals with clotting of human platelet-poor plasma. To be noted: 37°C. The protocol: (§1) Both PT and aPTT assays were performed as recommended by the vendor (Diagnostica Stago). Briefly, citrated normal pooled human platelet-poor plasma was mixed with test compound (2% DMSO) at 37°C. Subsequently, either the aPTT assay reagent or PT assay reagent was added and mixed thoroughly. CaCl2 was then added to trigger the clotting process. The time for clot formation was measured in seconds and the test compound concentration to double the clotting time (CT2x) was determined.

Data set [4] shares this test system. Nature of the data set: Activated partial thromboplastin time (aPTT) clotting assay. To be noted: 37°C. In kind it is biochemical. The protocol: as §1
Data set [5] deals with T2, Plasmin (Homo sapiens, UniProt P00747). Nature of the data set: Enzyme inhibition assay, chromogenic substrate S-2251.
T2 sequence (P00747 581-810 limits assumed, species assumed): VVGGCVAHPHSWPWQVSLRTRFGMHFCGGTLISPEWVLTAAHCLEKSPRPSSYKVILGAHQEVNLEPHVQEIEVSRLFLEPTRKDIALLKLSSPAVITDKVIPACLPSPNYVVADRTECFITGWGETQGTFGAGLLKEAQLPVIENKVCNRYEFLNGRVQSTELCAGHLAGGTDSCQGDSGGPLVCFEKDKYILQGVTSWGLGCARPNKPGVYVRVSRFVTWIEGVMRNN
T2 sequence (P00747 97-580 partner limits assumed, species assumed): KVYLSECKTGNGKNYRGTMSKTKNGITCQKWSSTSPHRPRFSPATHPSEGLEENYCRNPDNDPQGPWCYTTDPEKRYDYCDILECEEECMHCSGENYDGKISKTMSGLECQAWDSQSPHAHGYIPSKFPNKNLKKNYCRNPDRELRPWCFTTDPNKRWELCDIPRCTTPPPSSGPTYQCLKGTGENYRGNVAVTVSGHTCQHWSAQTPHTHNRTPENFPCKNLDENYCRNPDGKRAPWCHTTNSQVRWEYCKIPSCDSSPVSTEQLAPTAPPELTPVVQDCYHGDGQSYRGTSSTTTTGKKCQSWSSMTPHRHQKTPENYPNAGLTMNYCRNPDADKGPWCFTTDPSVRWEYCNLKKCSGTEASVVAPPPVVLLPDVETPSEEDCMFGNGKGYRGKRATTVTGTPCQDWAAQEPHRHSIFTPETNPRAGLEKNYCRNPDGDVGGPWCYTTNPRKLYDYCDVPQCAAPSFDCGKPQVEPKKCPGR
The target in a further data set is T3, Factor XIIa (Homo sapiens, UniProt P00748).
T3 sequence (P00748 373-615 limits assumed): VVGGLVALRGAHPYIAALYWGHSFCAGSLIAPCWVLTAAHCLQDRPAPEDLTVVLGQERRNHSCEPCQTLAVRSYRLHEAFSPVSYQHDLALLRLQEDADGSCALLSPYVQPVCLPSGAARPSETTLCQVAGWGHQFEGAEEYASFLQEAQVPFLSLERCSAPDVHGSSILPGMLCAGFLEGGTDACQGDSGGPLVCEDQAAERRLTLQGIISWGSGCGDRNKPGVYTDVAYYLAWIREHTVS
T3 sequence (P00748 20-372 partner limits assumed): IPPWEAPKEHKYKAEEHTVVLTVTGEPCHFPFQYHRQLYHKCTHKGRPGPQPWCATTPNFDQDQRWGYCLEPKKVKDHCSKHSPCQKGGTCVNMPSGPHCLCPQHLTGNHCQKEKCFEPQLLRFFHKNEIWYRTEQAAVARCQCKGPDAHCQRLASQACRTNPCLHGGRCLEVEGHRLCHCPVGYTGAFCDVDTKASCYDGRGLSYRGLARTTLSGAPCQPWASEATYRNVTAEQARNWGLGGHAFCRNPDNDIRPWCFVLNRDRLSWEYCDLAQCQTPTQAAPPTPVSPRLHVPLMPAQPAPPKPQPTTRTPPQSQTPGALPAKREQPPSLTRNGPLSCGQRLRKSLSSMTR
The data set can be described thus: Enzyme inhibition assay, chromogenic substrate S-2302.

Data set [6] has as its target T4, Factor XIa (Homo sapiens, UniProt P03951). The data set can be described thus: Enzyme inhibition assay, chromogenic substrate S-2366.
In the next data set the target is Factor VIIa (Homo sapiens, UniProt P08709). The data set can be described thus: Enzyme inhibition assay, chromogenic substrate S-2238.
Chain of Factor VIIa (P08709 213-466 limits assumed): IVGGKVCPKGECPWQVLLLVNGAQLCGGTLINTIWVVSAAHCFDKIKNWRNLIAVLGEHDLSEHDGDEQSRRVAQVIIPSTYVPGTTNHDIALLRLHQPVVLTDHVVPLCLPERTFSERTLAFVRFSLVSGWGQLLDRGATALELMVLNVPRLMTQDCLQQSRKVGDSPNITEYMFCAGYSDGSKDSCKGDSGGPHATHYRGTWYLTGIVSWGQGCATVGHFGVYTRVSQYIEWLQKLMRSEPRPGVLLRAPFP
Chain of Factor VIIa (P08709 61-212 partner limits assumed): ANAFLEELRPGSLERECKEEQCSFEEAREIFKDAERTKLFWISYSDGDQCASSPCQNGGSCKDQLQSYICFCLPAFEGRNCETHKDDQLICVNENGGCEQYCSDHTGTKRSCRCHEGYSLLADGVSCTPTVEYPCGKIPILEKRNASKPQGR
Chain of Factor VIIa (P13726 33-295 partner): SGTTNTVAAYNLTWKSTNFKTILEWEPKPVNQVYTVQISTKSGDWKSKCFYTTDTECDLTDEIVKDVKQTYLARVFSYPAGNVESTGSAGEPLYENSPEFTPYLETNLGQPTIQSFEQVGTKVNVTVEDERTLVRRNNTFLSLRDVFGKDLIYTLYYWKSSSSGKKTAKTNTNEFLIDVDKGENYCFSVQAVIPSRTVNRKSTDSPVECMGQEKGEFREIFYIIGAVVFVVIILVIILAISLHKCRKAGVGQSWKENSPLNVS
A further data set deals with aPC (Homo sapiens, UniProt P04070). The data set can be described thus: Enzyme inhibition assay, chromogenic substrate S-2366.
Chain of aPC (P04070 212-450 limits assumed): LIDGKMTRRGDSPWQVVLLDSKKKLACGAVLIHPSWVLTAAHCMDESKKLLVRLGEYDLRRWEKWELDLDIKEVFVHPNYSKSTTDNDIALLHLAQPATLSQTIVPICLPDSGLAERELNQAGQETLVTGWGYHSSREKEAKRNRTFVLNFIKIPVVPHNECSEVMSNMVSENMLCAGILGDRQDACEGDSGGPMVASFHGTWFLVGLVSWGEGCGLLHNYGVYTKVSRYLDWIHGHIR
Chain of aPC (P04070 43-197 partner limits assumed): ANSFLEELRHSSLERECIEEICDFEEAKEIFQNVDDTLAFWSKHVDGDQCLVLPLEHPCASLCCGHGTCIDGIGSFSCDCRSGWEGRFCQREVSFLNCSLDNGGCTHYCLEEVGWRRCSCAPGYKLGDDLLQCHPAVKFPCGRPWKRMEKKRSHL
Data set [7] in a line: Pharmacokinetics (PK) in CD-1 mice. To be noted: male, CD-1, mouse, plasma, iv, 0.5 mg/kg.
Description: The test compound was injected intravenously (i.v.) into CD-1 mice at 0.5 mg/kg in formulation containing 5% DMA (dimethyl acetamide) 15% Solutol HS15 and 80% water. Animals were euthanized at predefined time points by CO2 inhalation and blood was collected in K2-EDTA vacutainers by cardiac puncture. The vials were then centrifuged to collect plasma. […] LC-MS was performed using a Luna Omega 1.6 μm Polar C18 (Phenomenex) column, a Shimadzu Nexera UHPLC, and a Sciex QTrap 5500 mass spectrometer. The PK parameters were calculated by non-compartmental analysis using Phoenix WinNonlin (Certara).
Data set [8] addresses T2, Plasmin. The data set can be described thus: Progress curve kinetics experiments. It is filed as biochemical. More on the design: purchased Haemtech Biopharma Services. The protocol:
The data for the initial time points, up to at least 65% reaction progress, were analyzed as described in Wakselman et al..
Thus, when fitting to Eq (3), the extracted values kobs for each well were plotted against the modified inhibitor concentration [I]′0=(1−α)[I]0. (6)
For the experiments presented in this paper, n = 2 and the mean and standard deviation are reported for each parameter.

Another data set can be described thus: Plasma stability assay. In kind it is in vitro ADME. To be noted: 37°C, n = 2, read-out: Plasma stability t½. The protocol:
The compound at 20 μM (2% final DMSO concentration) was incubated with CD-1 mouse (Innovative Research), SD rat (Innovative research), or human plasma (George King BioMed) at 37°C for up to three hours. Aliquots were taken out at different time points and quenched in acetonitrile containing diclofenac (internal standard). The samples were then centrifuged and the supernatant was analyzed by UHPLC using a Kinetex 2.6 μm C18 (Phenomenex) column and a Shimadzu Nexera UHPLC. Verapamil was used as a positive control.

Data set [9] can be described thus: Liver microsome (LM) stability assay. To be noted: liver microsomes, NADPH, n = 2, read-out: LM stability t½. It is filed as in vitro ADME. The protocol: Compound at 1 μM (0.5% final DMSO concentration) was incubated with a 0.5 mg/mL CD-1 mouse (Sigma), SD rat (Life Technologies), or human liver microsome (Life Technologies) in the presence of 1 mM NADPH at 37°C for up to one hour. Aliquots were taken out at different time points and quenched in acetonitrile containing diclofenac (internal standard). […] Verapamil was used as a positive control, and warfarin was used as a negative control.
For orientation: Liver microsomes are vesicles of endoplasmic reticulum, rich in cytochrome P450 enzymes.

In data set [10] the target is T1, Factor Xa. Nature of the data set: Progress curve kinetics experiments. In kind it is biochemical. Further details: purchased Haemtech Biopharma Services.
Description: (§3) The data for the initial time points, up to at least 65% reaction progress, were analyzed as described in Wakselman et al. [20].
Data set [11] is described as follows: Control sample in buffer in the absence of thrombin. To be noted: 50 mM Tris pH 7.4, 100 mM NaCl, 0.2% PEG 8000, up to overnight.
Description: The reaction was then quenched with acetonitrile and centrifuged at 4°C, 1000x RCF, for 10 min to pellet the protein. […] Quantification of the compounds was performed by LC-MS using a Shimadzu Nexera X2 UPLC system coupled with a Sciex QTrap 5500. Chromatography was performed on a LunaOmega Polar C18 analytical column (1.6 μm, 50 x 2.1 mm). The mobile phases were 0.025% formic acid in water and 0.025% formic acid in acetonitrile.
Data set [12] has as its target T4, Factor XIa. The data set can be described thus: Progress curve kinetics experiments. In kind it is biochemical.
Description: as §3
The next data set deals with thrombin (Homo sapiens, UniProt P00734). The data set can be described thus: Enzyme inhibition assay, chromogenic substrate S-2238.
Another data set has as its target T5, thrombin mutant S195A (Homo sapiens, UniProt P00734, S568A).
T5 construct: made in house; host or cells: E. coli
The data set can be described thus: Binding of a dansyl probe to thrombin (tryptophan fluorescence). To be noted: 1 μM compound, excitation 280 nm, emission 340 nm. The protocol:
(§2) Compound 2 at 1 μM was incubated with WT human α-thrombin (80 nM) or the active site mutant protein S195A at room temperature for 10 min. Then, fluorescence measurements (excitation 280 nm, emission 340 nm) were recorded in kinetic mode.

The target of a further data set is T6, WT human α-thrombin (Homo sapiens, UniProt P00734).
T6 construct: made in house; host or cells: E. coli
The description is as above. To be noted: 1 μM compound, 80 nM thrombin, excitation 280 nm, emission 340 nm. The protocol: as §2

[13] abbreviates: read-out: Cmax EC50 (peak height).
[14] abbreviates: read-out: ETP EC50 (endogenous thrombin potential).

T4 sequence (P03951 388-625 limits assumed): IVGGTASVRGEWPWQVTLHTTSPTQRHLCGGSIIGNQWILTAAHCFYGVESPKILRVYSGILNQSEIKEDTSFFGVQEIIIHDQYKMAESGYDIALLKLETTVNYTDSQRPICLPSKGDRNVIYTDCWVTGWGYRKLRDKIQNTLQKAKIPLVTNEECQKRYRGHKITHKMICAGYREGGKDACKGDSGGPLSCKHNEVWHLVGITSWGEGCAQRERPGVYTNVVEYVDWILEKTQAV
T4 sequence (P03951 19-387 partner limits assumed): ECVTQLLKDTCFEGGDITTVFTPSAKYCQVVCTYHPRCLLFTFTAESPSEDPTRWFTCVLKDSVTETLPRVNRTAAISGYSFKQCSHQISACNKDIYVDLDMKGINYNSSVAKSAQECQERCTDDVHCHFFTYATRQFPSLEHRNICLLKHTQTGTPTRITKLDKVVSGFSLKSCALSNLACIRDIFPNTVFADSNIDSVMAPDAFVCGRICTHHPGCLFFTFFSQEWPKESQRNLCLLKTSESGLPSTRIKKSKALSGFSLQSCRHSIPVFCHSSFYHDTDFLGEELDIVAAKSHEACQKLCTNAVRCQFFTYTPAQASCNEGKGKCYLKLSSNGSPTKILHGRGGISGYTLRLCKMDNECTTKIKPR

For `CC1CNc2c(cccc2S(=O)(=O)N[C@@H](CCCNC(=N)N)C(=O)N2CC[C@@H](C)C[C@@H]2C(=O)O)C1` (some centres unmarked) [Argatroban], the IC50 at Trypsin, against Factor Xa [1], at Factor IXa, at Plasmin [5], against Factor XIIa and against Factor XIa [6] was over 50 µM in each case. Also, the IC50 against Factor VIIa and at aPC was over 50 µM each time. In addition, the EC50 in data set [2] (setting [13]) is 0.27 ± 0.05 µM; in data set [2] (setting [14]), 0.34 ± 0.11 µM. Also, in data set [3], the “CT2x in PT assay (concentration to double the clotting time)” value was 0.60 ± 0.14 µM. In addition, the “CT2x in aPTT assay (concentration to double the clotting time)” value in data set [4] came to 0.27 ± 0.15 µM.
For `COc1ccccc1C(=O)n1nc(C2CCNCC2)c(F)c1NCc1ccc(Cl)s1` [Compound 1], the 50% inhibitory concentration (IC50) against Factor Xa [1] is 8.3 ± 3.4 µM; at Factor IXa, over 50 µM; at Plasmin [5], 0.7 ± 0.15 µM; against Factor XIIa it was over 50 µM; on Factor XIa [6], 2.8 ± 0.2 µM; at Factor VIIa, 13.8 ± 2.8 µM. For the same molecule, the IC50 against aPC is over 50 µM. The AUC in data set [7] amounted to 88 ng·h/mL. The molecule also showed a C0 in [7] of 260 ng/mL. In addition, the Vd in data set [7] worked out at 30 L/kg. Besides, the clearance in [7] is 183 mL/min/kg. In data set [7], this molecule had a half-life of 114 min. The “CT2x in aPTT assay (concentration to double the clotting time)” value in data set [4] is over 100 µM. Also, the Ki on Plasmin [8] was found to be 0.8 ± 0.6 µM; at Factor Xa [10], 94 ± 57 µM; at Factor XIa [12], 5.5 ± 4 µM. Further, the half-life at 20 μM in the data set “Plasma stability assay” (CD-1 mouse plasma) was found to be 14 ± 1 min; in “Plasma stability assay” (Human plasma) it was 89 ± 9 min; in “Plasma stability assay” (SD rat plasma), 25 min. The half-life at 1 μM in data set [9] (CD-1 mouse liver microsome 0.5 mg/mL) worked out at 20 ± 2 min; in data set [9] (Human liver microsome 0.5 mg/mL), 110 min; in data set [9] (SD rat liver microsome 0.5 mg/mL) it was 8 ± 1.6 min. Besides, in data set [11], the “stability in buffer in the absence of thrombin” value is given as “stable over the entire course of the experiment”.
At thrombin, `CN(C)c1cccc2c(S(=O)(=O)Nc3ccc(C(=O)n4nc(C5CCNCC5)c(F)c4NCc4ccc(Cl)s4)cc3)cccc12` [Compound 2] had an IC50 of 0.08 µM. For the same molecule, the “change of tryptophan fluorescence on addition to thrombin S195A” value at thrombin mutant S195A is “failed to produce any change in fluorescence”. Also, at WT human α-thrombin, the “change of tryptophan fluorescence on incubation with thrombin WT” value was “time-dependent change in the fluorescence intensity at 340 nm”.
Take `Fc1c(C2CCNCC2)n[nH]c1NCc1ccc(Cl)s1` [Compound 3]: in data set [2], the “Tmax EC2x (concentration necessary to shift the time to peak 2-fold)” value was over 100 µM. Besides, the concentration for a half-maximal effect (EC50) in [2] (setting [13]) and in data set [2] (setting [14]) was over 100 µM in each case. This molecule had an IC50 at thrombin of over 100 µM.
As for `[H]/N=C(/N)c1ccc(NCc2nc3cc(C(=O)N(CCC(=O)O)c4ccccn4)ccc3n2C)cc1` [Dabigatran], the IC50 was over 50 µM against Factor IXa; 8.4 ± 2.6 µM against Plasmin [5]; over 50 µM against Factor XIIa; 4.2 ± 1.5 µM against Factor XIa [6]; 40.7 ± 13.3 µM against Factor VIIa; 41.3 ± 7.6 µM against aPC. The EC50 is 0.24 ± 0.08 µM in data set [2] (setting [13]) and 0.21 ± 0.04 µM in data set [2] (setting [14]).

The values above are taken from PMC6072017, “Reversible covalent direct thrombin inhibitors” (PLoS ONE, 2018).
